For one assay, the target named is PDE 4. The assay is described as follows: PDE 4 enzyme inhibition (SPA). The class given is biochemical. The note with it: PDE 4 purified from human PMNs; cAMP 1 μM. As for the experimental part: a) Human Polymorphonuclear Leukocyte Isolation
The polymorphonuclear leukocytes (PMNs) were isolated from peripheral blood of healthy volunteers according to Boyum A. (Scand. J. Immunol., 1976, 5th suppl., 9). Briefly, the PMNs were purified by Ficoll-Paque gradient centrifugation followed by sedimentation on dextran and the erythrocyte contamination was eliminated by hypotonic lysis.
b) PDE 4 Enzyme Purification
The human PMNs were suspended in TRIS/HCl buffer (10 mM, pH 7.8) containing MgCl2 (5 mM), EGTA (4 mM), mercaptoethanol (5 mM), TRITON-X100 (1%), pepstatin A (1 μM), PMSF (100 μM) and leupeptin (1 μM), and homogenised by Polytron homogeniser. The homogenate was centrifuged at 25,000×g for 30 minutes at 4° C. and the PDE 4 enzyme was purified by ion exchange chromatography using the FPLC technique according to Schudt C. et al. (Naunyn-Schmidberg's Arch. Pharmacol., 1991, 334, 682). The supernatant was seeded on a UNO Q12 column (Bio-Rad) and the enzyme was eluted by sodium acetate linear gradient from 50 mM to 1M using a flow rate of 4.5 ml/minutes. The fractions containing enzymatic activity were pooled, dialysed against water and concentrated. The PDE 4 enzyme was stored at, −20° C. in the presence of ethylene glycol (30% v/v) until the use.
The enzyme activity was evaluated with a Scintillation Proximity Assay (SPA) kit (Amersham). The enzymatic reaction was performed in a final volume of 100 μl of TRIS/HCl buffer (50 mM, pH 7.5), MgCl2 (8.3 mM), EGTA (1.7 mM), cAMP (1 μM) and [^3H]cAMP (˜100.000 dpm) as tracer. The compounds of the invention, the reference ones or the vehicle were added at different concentrations. As reference compounds 6,7-dimethoxy-4-pyridin-4-yl-methyl)2H-phthalazin-1-one (reference 1) and 6,7-dimethoxy-4-(piperidin-4-yl-methyl)2H-phthalazin-1-one (reference 2) embraced by the general formula of the patent application EP-0 722 936 (in the name of Eisai) were used. The reaction was started by adding 1.5 μg protein and incubated for 40 minutes at 30° C. SPA beads (50 μl) containing 18 mM zinc sulphate were added to stop the reaction and after 20 minutes at room temperature the radioactivity was measured using a scintillation counter.
The IC50 value refers to the nanomolar concentration of the compound required to inhibit cyclic nucleotide hydrolysis by 50%, and it was calculated by non-linear regression analysis.

The next assay addresses T1, PDE 3 (Homo sapiens, UniProt Q14432).
T1 construct: The fractions containing the enzymatic activities (PDE 3 or PDE 5) were pooled; from tissue; host or cells: human platelets from platelet rich plasma of healthy volunteers
Nature of the assay: PDE 3 enzyme inhibition (SPA). Format: biochemical. The note with it: 10^−6 M; PDE 3 from human platelets; cAMP. As for the experimental part:
(§1) a) Human Platelet Preparation
(§2) Human platelets were prepared from platelet rich plasma (PRP) obtained from healthy volunteers. The PRP was centrifuiged at 2,200 rpm for 15 minutes at 4° C. and the pellet was suspended in lysis solution (15 ml; 155 mM NH4Cl, 10 mM KHCO3 and 0.1 mM Na2EDTA, pH=7.4) and incubated for 10 minutes on ice-bath to remove the erythrocyte contamination. After centrifugation at 1,400 rpm for 10 minutes at 4° C., platelets were suspended in 10 ml of […], 5 mM KCl, 1 mM MgSO4, 10 mM glucose, 10 mM HEPES (pH 7.4) and 0.05 U/ml of hirudin, and stored at −20° C. until homogenisation. Platelets were thawed and 50 ml of 20 mM TRIS (pH=6.5) containing 5 mM β-mercapto-ethanol, 2 mM EDTA, 50 mM sodium acetate and 50 μM PMSF (homogenisation buffer) were added. The platelet suspension was then homogenised by a Polytron homogeniser (Polytron PT 1200) for 20 seconds. The homogenate was centrifuged at 14,500 rpm for 20 minutes at 4° C., and the supernatant was applied to an UNO Q12 column (Bio-Rad). The PDE 3 and PDE 5 were eluted by sodium acetate linear gradient from 0.05M to 1M using a flow rate of 4.5 ml/minutes. The fractions containing the enzymatic activities (PDE 3 or PDE 5) were pooled, dialysed against water and concentrated 10 times by ultrafiltration. The PDE 3 and PDE 5 fractions were stored at −20° C. in the presence of ethylene glycol (30% v/v) until use.
(§3) b) PDE 3 and PDE 5 Activity Assay
(§4) The enzyme activity was evaluated with a Scintillation Proximity Assay (SPA) kit (Amersham). The enzymatic reaction was performed in a final volume of 100 μl of TRIS/HCl buffer (50 mM, pH7.5), MgCl2 (8.3 mM), EGTA (1.7 mM), cAMP (for PDE 3 assay) or cGMP (for PDE 5 assay) (1 μM), [^3H]cAMP or [^3H]cGMP (10 μl ), and 10 μl of the compounds of the invention or vehicle. The reaction was started by adding the enzyme (1.0 μg) and incubated for 40 minutes at 30° C. SPA beads (50 μl) containing 18 mM zinc sulphate were added to stop the reaction and after 20 minutes at room temperature the radioacticity was measured using a scintillation counter.
(§5) The compounds were tested at 10^−6M and the results are expressed as percent of inhibition.

The next assay addresses T2, PDE 5 (Homo sapiens, UniProt O76074).
T2 construct: The fractions containing the enzymatic activities (PDE 3 or PDE 5) were pooled; from tissue; host or cells: human platelets from platelet rich plasma of healthy volunteers
The assay is described as follows: PDE 5 enzyme inhibition (SPA). The conditions noted are these: 10^−6 M; PDE 5 from human platelets; cGMP. Format: biochemical. Here is the method:
as §1, §2, §3, §4, §5

The subject of assay [1] is TNFα release from human monocytes. Nature of the assay: TNFα release inhibition in LPS-stimulated monocytes. The class given is cell-based. The note with it: Monocyte, LPS 1 ng/ml, 16 hours, ELISA. As for the experimental part:
a) Human Monocyte Isolation
The monocytes were isolated from peripheral blood of healthy volunteers according to the procedure of Schreek L. et al. (J. Natl. Cancer Inst., 1964, 32, 507). The monocyte and lymphocyte population was isolated by Ficoll gradient centrifugation, and the cells diluted at a density of 2.5×10^6 cells/ml in RPMI1640 incubation medium containing 1% heat-inactivated foetal calf serum, penicillin (100 U/ml) and streptomycin (100 μg/ml) were plated in 24-wells plates (1 ml/well) and left to adhere for 1 hour at 37° C. with 5% CO2. Non-adherent lymphocytes were removed by aspiration and the monocytes adhered to the plate were used in the next step.
The TNFα release from human monocytes was measured according to the method of Barnette M. et al. (Biochemical Pharmacology, 1996, 51, 949). The monocytes were incubated for 1 hour with 1 ml of RPMI1640 incubation medium (1% beat-inactivated foetal calf serum, 100 U/ml penicillin and 100 μg/ml streptomyc in) containing different concentrations of the products according to the present invention or the vehicle for the controls. The TNFα release from monocytes was induced by adding 1 ng/ml of LPS (lipopolysaccharide from E. Coli) and after 16 hours of incubation at 37° C., 5% CO2, the incubation medium was removed, centrifuged and the supernatant stored at −80° C. until TNFα assay by ELISA kit (Amersham). The results are expressed as IC50 following the same calculation explained in example 147.

T1 sequence (Q14432 whole entry): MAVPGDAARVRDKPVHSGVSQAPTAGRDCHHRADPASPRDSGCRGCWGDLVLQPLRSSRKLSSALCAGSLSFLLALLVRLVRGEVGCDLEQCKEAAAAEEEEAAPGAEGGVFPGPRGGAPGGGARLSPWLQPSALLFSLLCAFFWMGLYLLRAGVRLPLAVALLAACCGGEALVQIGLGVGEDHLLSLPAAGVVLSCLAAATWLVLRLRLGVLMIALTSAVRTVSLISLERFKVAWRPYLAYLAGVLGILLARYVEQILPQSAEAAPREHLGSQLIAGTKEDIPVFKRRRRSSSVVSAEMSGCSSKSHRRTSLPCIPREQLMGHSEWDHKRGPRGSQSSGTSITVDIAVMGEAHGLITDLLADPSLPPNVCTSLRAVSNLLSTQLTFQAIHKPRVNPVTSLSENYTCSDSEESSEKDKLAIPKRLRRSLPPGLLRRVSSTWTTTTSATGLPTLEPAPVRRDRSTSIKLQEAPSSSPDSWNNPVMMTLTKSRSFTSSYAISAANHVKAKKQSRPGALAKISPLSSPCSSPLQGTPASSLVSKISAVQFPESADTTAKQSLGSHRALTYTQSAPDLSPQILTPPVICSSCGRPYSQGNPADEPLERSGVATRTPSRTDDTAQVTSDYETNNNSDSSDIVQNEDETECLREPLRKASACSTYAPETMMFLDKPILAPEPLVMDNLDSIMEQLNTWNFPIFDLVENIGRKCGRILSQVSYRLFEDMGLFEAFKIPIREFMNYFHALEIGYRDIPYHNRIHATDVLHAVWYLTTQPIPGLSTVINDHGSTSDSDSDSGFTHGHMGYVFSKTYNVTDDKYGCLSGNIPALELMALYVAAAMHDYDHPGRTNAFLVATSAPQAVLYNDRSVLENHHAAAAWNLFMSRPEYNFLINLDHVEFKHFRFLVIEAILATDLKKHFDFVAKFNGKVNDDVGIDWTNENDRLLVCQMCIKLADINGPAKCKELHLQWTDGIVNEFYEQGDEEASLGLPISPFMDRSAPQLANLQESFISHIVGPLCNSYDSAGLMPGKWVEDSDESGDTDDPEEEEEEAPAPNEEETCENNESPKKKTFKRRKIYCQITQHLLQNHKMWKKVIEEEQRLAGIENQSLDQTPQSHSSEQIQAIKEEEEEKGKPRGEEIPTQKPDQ

For orientation: IC50 means the midpoint of a concentration-inhibition curve. Low readings indicate higher potency, high ones lower potency. What is called inhibition is the change of the read-out against control, counted positive when it falls. Turning to `COc1ccc2c(Cc3c(Cl)cncc3Cl)nnc(N3CCOCC3)c2c1` [Compound 38, 1(3,5-Dichloro-pyridin-4-ylmethyl)-6-methoxy-4-morpholin-4-yl-phthalazine], the IC50 was 132 ± 30 nM at PDE 4 and 62 ± 17 nM in assay [1]. The inhibition at 1 µM was -2% at PDE 3 and 1% at PDE 5.
As to `COc1ccc2c(c1)CN(C(C)=O)N=C2Cc1c(Cl)cncc1Cl` [Compound 8, 1-[4-(3,5-Dichloro-pyridin-4-ylmethyl)-7-methoxy-1H-phthalazin-2-yl]-ethanone], the IC50 on PDE 4 is 51 ± 7 nM; in assay [1], 48 ± 14 nM. Moreover, the inhibition at 1 µM against PDE 3 came to 12%; on PDE 5 it was 35%.
Turning to `COc1ccc2c(Cc3c(Cl)cncc3Cl)nnc(N3CCCC3)c2c1` [Compound 49, 1-(3,5-Dichloropyridin-4-ylmethyl)-6-methoxy-4-pyrrolidin-1-yl-phthalazine], the inhibition at 1 µM against PDE 3 is -10%; against PDE 5 it was 10%. The same compound returned an IC50 in assay [1] of 9.1 ± 2.9 nM.
Consider `COc1ccc2c(Cc3c(Cl)cncc3Cl)nnc(-c3ccccc3)c2c1` [Compound 5, 1-(3,5-Dichloro-pyridin-4-ylmethyl)-6-methoxy-4-phenyl-phthalazine], for which the values for the IC50 (on PDE 4; in assay [1]) were 37 ± 6 nM and 46 ± 15 nM, respectively. Besides, the values for the inhibition at 1 µM against PDE 3 and against PDE 5 were 7% and 21%, respectively.
Taken in the same sequence, the figures for `COc1ccc2c(Cc3c(Cl)cncc3Cl)nnc(CN3CCOCC3)c2c1` [Compound 56, 1-(3,5-Dichloro-pyridin-4-ylmethyl)-6-methoxy-4-morpholin-4-ylmethyl-phthalazine] were 364 ± 67 nM, 260 ± 44 nM, -9% and 14%.
For `COc1ccc2c(Cc3c(Cl)cncc3Cl)nnc(-n3cncn3)c2c1` [Compound 29, 1-(3,5-Dichloro-pyridin-4-ylmethyl)-6-methoxy-4-[1,2,4]triazol-1-yl-phthalazine], the IC50 is 241 ± 73 nM against PDE 4 and 73 ± 21 nM in assay [1]. The inhibition at 1 µM was -4% against PDE 3 and 1% against PDE 5.

Values taken from US6492360B1, “Phthalazine derivatives phosphodiesterase 4 inhibitors” (Zambon Group S.p.A., priority 1998, dated 2002).
